Data on 2 compounds can be found in PMC4081560 (PLoS ONE, 2014).

Each structure is given as a SMILES string.

For experiment [1], the system named is K/2785 virus (A/Korea/2785/2009). The class given is cell-based, 2009 pandemic H1N1 oseltamivir-resistant variant.
For experiment [2], the target named is K/2785 virus (A/Korea/2785/2009) neuraminidase (NA H275Y) (Influenza A virus, UniProt C5MQP8, H275Y). The class given is biochemical, 2009 pandemic H1N1 oseltamivir-resistant variant.

What is called EC50 is the concentration giving half of the maximal effect. Low values mean greater potency, high ones weaker potency. Regarding `NC(=O)c1nc(F)cnc1O` [Favipiravir, 6-fluoro-3-hydroxy-2-pyrazinecarboxamide], the 50% effective concentration (EC50) in experiment [1] worked out at 10.8 µM. In other words, the double-digit micromolar range.
The term IC50 denotes the point on the concentration scale where inhibition reaches its midpoint. With `CCC(CC)[C@H](NC(C)=O)[C@@H]1[C@H](O)[C@@H](C(=O)O)C[C@H]1N=C(N)N` [Peramivir], in experiment [2], the IC50 was determined as 0.0298 µM and the “higher concentration needed compared with K/09 virus” value is reported as “more than 20 fold”.
